The values that follow come from PMC9364363 (RSC Advances, 2022).

In one data set the test system is Mtb H37Ra^lux. Briefly: microbe, parasite or virus in culture. It is filed as cell-based, Mycobacterium tuberculosis. Conditions: for IC50: read-out: Mtb H37Ra^lux IC50; for MIC: read-out: Mtb H37Ra^lux IC90 (MIC).
For a further data set, the system named is M. avium subsp. avium. The experiment in a line: microbe, parasite or virus in culture. It counts as cell-based, Mycobacterium avium subsp. avium. Conditions: Mycobacterium avium, 168 h, read-out: IC50 M. avium subsp. avium.
For the next data set, the system named is M. intracellulare. Briefly: microbe, parasite or virus in culture. Conditions: Mycobacterium intracellulare, 168 h, read-out: IC50 M. intracellulare. It counts as cell-based, Mycobacterium intracellulare.
In a further data set the test system is M. abscessus. Briefly: microbe, parasite or virus in culture. It counts as cell-based, Mycobacterium abscessus. Conditions: Mycobacteroides abscessus, 72 h, read-out: IC50 M. abscessus.
In data set [1] the test system is MRC-5 lung fibroblast cell line.
Another data set can be described thus: in vitro. The conditions noted are these: human.
The mark [2] stands for this setting: Mycobacterium tuberculosis, H37RA, 168 h.

Converted amounts (≈) assume the structure as drawn. Like-named read-outs stand apart in the source and are kept apart here. Some results are limits rather than exact numbers.

For orientation: IC50 means the concentration at which inhibition is half-maximal.

For the compound `COc1cccc(-n2cc(CN3CCN(C(=O)c4c(C)nc5sccn45)CC3)nn2)c1` [IT27, (4-((1-(3-Methoxyphenyl)-1H-1,2,3-triazol-4-yl)-methyl)-piperazin-1-yl)(6-methylimidazo-[2,1-b]-thiazol-5-yl)-methanone], in the data set on Mtb H37Ra^lux (setting [2]), the 50% inhibitory concentration (IC50) was found to be 46 µM and the MIC came out at 98.1 µM (≈ 42.9 µg/mL).

Take `Cc1nc2sccn2c1C(=O)N1CCN(Cc2cn(-c3ccccc3Cl)nn2)CC1` [IT26, (4-((1-(2-Chlorophenyl)-1H-1,2,3-triazol-4-yl)-methyl)-piperazin-1-yl)(6-methylimidazo-[2,1-b]-thiazol-5-yl)-methanone]: in the data set with Mtb H37Ra^lux (setting [2]), the IC50 turned out to be 30.2 µM and the MIC was 62.1 µM (≈ 27.5 µg/mL).

As to `Cc1nc2sccn2c1C(=O)N1CCN(Cc2cn(-c3ccc(Br)cc3)nn2)CC1` [IT21, (4-((1-(4-Bromophenyl)-1H-1,2,3-triazol-4-yl)-methyl)-piperazin-1-yl)(6-methylimidazo-[2,1-b]-thiazol-5-yl)-methanone], in the data set on Mtb H37Ra^lux (setting [2]), the 50% inhibitory concentration (IC50) stood at 20.7 µM and the MIC was 53 µM (≈ 25.8 µg/mL).

On to `CCCCc1cn(CCN2CCN(C(=O)c3c(C)nc4sc5ccccc5n34)CC2)nn1` [IT12, (4-(2-(4-Butyl-1H-1,2,3-triazol-1-yl)-ethyl)-piperazin-1-yl)(2-methylbenzo-[d]-imidazo-[2,1-b]-thiazol-3-yl)-methanone], for which, in the data set on Mtb H37Ra^lux (setting [2]), the IC50 is 43.7 µM and the MIC is 62.8 µM (≈ 28.3 µg/mL).

On to `Cc1nc2sc3ccccc3n2c1C(=O)N1CCN(Cc2cn(-c3ccc([N+](=O)[O-])cc3)nn2)CC1` [IT10, (2-Methylbenzo-[d]-imidazo-[2,1-b]-thiazol-3-yl)(4-((1-(4-nitrophenyl)-1H-1,2,3-triazol-4-yl)-methyl)-piperazin-1-yl)-methanone], for which the IC50 in the data set with Mtb H37Ra^lux (setting [2]) is 2.32 µM; in the data set on M. avium subsp. avium, above 128 µM; with M. intracellulare, above 128 µM; in the data set on M. abscessus it was above 128 µM. For the same compound, the MIC in the data set on Mtb H37Ra^lux (setting [2]) stood at 7.05 µM (≈ 3.54 µg/mL). The “T.I. CC50/IC50” value in data set [1] is 55.2. The compound further had a CC50 in the data set “in vitro” above 128 µM.

For the compound `Cc1nc2sccn2c1C(=O)N1CCN(Cc2cn(-c3ccc([N+](=O)[O-])cc3)nn2)CC1` [IT25, (6-Methylimidazo-[2,1-b]-thiazol-5-yl)(4-((1-(4-nitrophenyl)-1H-1,2,3-triazol-4-yl)-methyl)-piperazin-1-yl)-methanone], in the data set with Mtb H37Ra^lux (setting [2]), the half-maximal inhibitory concentration (IC50) turned out to be 23.1 µM and the MIC is 51.4 µM (≈ 23.2 µg/mL).

In the case of `Cc1nc2sccn2c1C(=O)N1CCN(Cc2cn(-c3cccc([N+](=O)[O-])c3)nn2)CC1` [IT23, (6-Methylimidazo-[2,1-b]-thiazol-5-yl)(4-((1-(3-nitrophenyl)-1H-1,2,3-triazol-4-yl)-methyl)-piperazin-1-yl)-methanone], in the data set with Mtb H37Ra^lux (setting [2]), the IC50 was 43.8 µM and the MIC is 84.8 µM (≈ 38.4 µg/mL).

`Cc1nc2sc3ccccc3n2c1C(=O)N1CCN(CCn2cc(C3CC3)nn2)CC1` [IT18, (4-(2-(4-Cyclopropyl-1H-1,2,3-triazol-1-yl)-ethyl)-piperazin-1-yl)(2-methylbenzo-[d]-imidazo-[2,1-b]-thiazol-3-yl)-methanone]: in the data set with Mtb H37Ra^lux (setting [2]), the concentration for half-maximal inhibition (IC50) was determined as 29.1 µM and the MIC is 63.8 µM (≈ 27.8 µg/mL).

Regarding `NNC(=O)c1ccncc1` [INH, isoniazid, reference compound], in the data set with Mtb H37Ra^lux (setting [2]), the IC50 turned out to be 0.04 µM and the MIC was found to be 0.09 µM (≈ 0.0123 µg/mL).

With `Cc1ccc(-n2cc(CN3CCN(C(=O)c4c(C)nc5sc6ccccc6n45)CC3)nn2)cc1C` [IT09, (4-((1-(3,4-Dimethylphenyl)-1H-1,2,3-triazol-4-yl)-methyl)-piperazin-1-yl)(2-methylbenzo-[d]-imidazo-[2,1-b]-thiazol-3-yl)-methanone], the IC50 was 3.46 µM in the data set on Mtb H37Ra^lux (setting [2]), above 128 µM in the data set with M. avium subsp. avium, above 128 µM in the data set on M. intracellulare and above 128 µM with M. abscessus. In addition, the MIC with Mtb H37Ra^lux (setting [2]) was determined as 13.5 µM (≈ 6.55 µg/mL). For the same compound, in data set [1], the “T.I. CC50/IC50” value is reported as 37.0. In addition, in the data set “in vitro”, the CC50 was above 128 µM.

In the case of `Cc1nc2sc3ccccc3n2c1C(=O)N1CCN(Cc2cn(-c3cccc([N+](=O)[O-])c3)nn2)CC1` [IT08, (2-Methylbenzo-[d]-imidazo-[2,1-b]-thiazol-3-yl)(4-((1-(3-nitrophenyl)-1H-1,2,3-triazol-4-yl)-methyl)-piperazin-1-yl)-methanone], the concentration for half-maximal inhibition (IC50) in the data set with Mtb H37Ra^lux (setting [2]) is 2.96 µM; with M. avium subsp. avium, above 128 µM; in the data set on M. intracellulare, above 128 µM; in the data set on M. abscessus, above 128 µM. Further, in the data set with Mtb H37Ra^lux (setting [2]), the MIC was found to be 11.8 µM (≈ 5.94 µg/mL). Further, the “T.I. CC50/IC50” value in data set [1] was 43.2. The CC50 in “in vitro” was above 128 µM.

For `Cc1ccc(-n2cc(CN3CCN(C(=O)c4c(C)nc5sccn45)CC3)nn2)cc1C` [IT24, (4-((1-(3,4-Dimethylphenyl)-1H-1,2,3-triazol-4-yl)-methyl)-piperazin-1-yl)(6-methylimidazo-[2,1-b]-thiazol-5-yl)-methanone], in the data set with Mtb H37Ra^lux (setting [2]), the IC50 worked out at 19.8 µM and the MIC is 48.8 µM (≈ 21.2 µg/mL).

As for `Cc1nc2sccn2c1C(=O)N1CCN(CCn2cc(-c3ccccc3)nn2)CC1` [IT20, (6-Methylimidazo-[2,1-b]-thiazol-5-yl)(4-(2-(4-phenyl-1H-1,2,3-triazol-1-yl)-ethyl)-piperazin-1-yl)-methanone], in the data set with Mtb H37Ra^lux (setting [2]), the IC50 was 20.6 µM and the MIC amounted to 54.9 µM (≈ 23.2 µg/mL).

`COc1cccc(-n2cc(CN3CCN(C(=O)c4c(C)nc5sc6ccccc6n45)CC3)nn2)c1` [IT07, (4-((1-(3-Methoxyphenyl)-1H-1,2,3-triazol-4-yl)-methyl)-piperazin-1-yl)(2-methylbenzo-[d]-imidazo-[2,1-b]-thiazol-3-yl)-methanone]: in the data set on Mtb H37Ra^lux (setting [2]), the half-inhibitory concentration (IC50) came to 7.27 µM and the MIC was 15.4 µM (≈ 7.49 µg/mL).

For the compound `Cc1nc2sccn2c1C(=O)N1CCN(CCn2cc(COc3ccc(Cl)cn3)nn2)CC1` [IT05, (4-(2-(4-(((5-Chloropyridin-2-yl)-oxy)-methyl)-1H-1,2,3-triazol-1-yl)ethyl)-piperazin-1-yl)(6-methylimidazo-[2,1-b]-thiazol-5-yl)-methanone], in the data set on Mtb H37Ra^lux (setting [2]), the concentration for half-maximal inhibition (IC50) is 49.6 µM and the MIC is above 128 µM.

As for `Cc1nc2sccn2c1C(=O)N1CCN(CCn2cc(CSc3nc4ccccc4[nH]3)nn2)CC1` [IT04, (4-(2-(4-(((1H-Benzo-[d]-imidazole-2-yl)-thio)-methyl)-1H-1,2,3-triazol-1-yl)-ethyl)-piperazin-1-yl)(6-methylimidazo-[2,1-b]-thiazol-5-yl)-methanone], the IC50 in the data set on Mtb H37Ra^lux (setting [2]) was 3.94 µM; with M. avium subsp. avium, above 128 µM; in the data set on M. intracellulare it was above 128 µM; in the data set on M. abscessus, above 128 µM. Besides, the MIC with Mtb H37Ra^lux (setting [2]) was found to be 14.6 µM (≈ 7.41 µg/mL). In addition, in data set [1], the “T.I. CC50/IC50” value was 32.5. The same compound displayed a CC50 in “in vitro” above 128 µM.

Consider `Cc1nc2sccn2c1C(=O)N1CCN(CCn2cc(C3CC3)nn2)CC1` [IT19, (4-(2-(4-Cyclopropyl-1H-1,2,3-triazol-1-yl)-ethyl)-piperazin-1-yl)(6-methylimidazo-[2,1-b]-thiazol-5-yl)-methanone], for which, in the data set on Mtb H37Ra^lux (setting [2]), the IC50 was above 128 µM and the MIC is above 128 µM.

In the case of `Cc1nc2sc3ccccc3n2c1C(=O)N1CCN(Cc2cn(-c3ccc(Cl)cc3Cl)nn2)CC1` [IT06, (4-((1-(2,4-Dichlorophenyl)-1H-1,2,3-triazol-4-yl)-methyl)-piperazin-1-yl)(2-methylbenzo-[d]-imidazo-[2,1-b]-thiazol-3-yl)-methanone], in the data set on Mtb H37Ra^lux (setting [2]), the IC50 came out at 2.03 µM and the MIC turned out to be 15.2 µM (≈ 8.01 µg/mL).

On to `CCCCCCCCCc1cn(CCN2CCN(C(=O)c3c(C)nc4sc5ccccc5n34)CC2)nn1` [IT14, (2-methylbenzo-[d]-imidazo-[2,1-b]-thiazol-3-yl)(4-(2-(4-nonyl-1H-1,2,3-triazol-1-yl)-ethyl)-piperazin-1-yl)-methanone], for which, in the data set with Mtb H37Ra^lux (setting [2]), the IC50 worked out at 13.1 µM and the MIC was 28 µM (≈ 14.6 µg/mL).

On to `Cc1nc2sc3ccccc3n2c1C(=O)N1CCN(CCn2cc(-c3ccc(C(C)(C)C)cc3)nn2)CC1` [IT13, (4-(2-(4-(4-(tert-Butyl)-phenyl)-1H-1,2,3-triazol-1-yl)-ethyl)-piperazin-1-yl)(2-methylbenzo-[d]-imidazo-[2,1-b]-thiazol-3-yl)-methanone], for which the IC50 was 3.19 µM with Mtb H37Ra^lux (setting [2]), 17.1 µM in the data set on M. avium subsp. avium, above 128 µM in the data set on M. intracellulare and above 128 µM with M. abscessus. In the data set on Mtb H37Ra^lux (setting [2]), the MIC worked out at 7.24 µM (≈ 3.82 µg/mL). In data set [1], the “T.I. CC50/IC50” value is given as 13.7. This compound gave a CC50 in “in vitro” of 43.7 µM.

On to `CCCCc1cn(CCN2CCN(C(=O)c3c(C)nc4sccn34)CC2)nn1` [IT01, (4-(2-(4-Butyl-1H-1,2,3-triazol-1-yl)-ethyl)-piperazin-1-yl)(6-methylimidazo-[2,1-b]-thiazol-5-yl)-methanone], for which, in the data set on Mtb H37Ra^lux (setting [2]), the IC50 came out at 6.12 µM and the MIC turned out to be 52 µM (≈ 20.9 µg/mL).

As to `CC/C(=C(\c1ccccc1)c1ccc(OCCN(C)C)cc1)c1ccccc1` [Tamoxifen, reference compound], the CC50 in “in vitro” was 12.4 µM.

On to `Cc1nc2sccn2c1C(=O)N1CCN(Cc2cn(-c3ccc(F)c(Cl)c3)nn2)CC1` [IT22, (4-((1-(3-Chloro-4-fluorophenyl)-1H-1,2,3-triazol-4-yl)-methyl)-piperazin-1-yl)(6-methylimidazo-[2,1-b]-thiazol-5-yl)-methanone], for which, in the data set on Mtb H37Ra^lux (setting [2]), the IC50 worked out at 5.28 µM and the MIC was found to be 57.8 µM (≈ 26.6 µg/mL).

Turning to `Cc1nc2sc3ccccc3n2c1C(=O)N1CCN(CCn2cc(-c3ccccc3)nn2)CC1` [IT15, (2-Methylbenzo-[d]-imidazo-[2,1-b]-thiazol-3-yl)(4-(2-(4-phenyl-1H-1,2,3-triazol-1-yl)-ethyl)-piperazin-1-yl)-methanone], in the data set on Mtb H37Ra^lux (setting [2]), the IC50 was 12.2 µM and the MIC worked out at 27.2 µM (≈ 12.8 µg/mL).

On to “(4-(2-(4-((5-Chloropyridin-2-yl)oxy)-1H-1,2,3-triazol-1-yl)-ethyl)-piperazin-1-yl)(2-methylbenzo-[d]-imidazo-[2,1-b]-thiazol-3-yl)-methanone [IT17]”, for which, in the data set with Mtb H37Ra^lux, the “Mtb H37Ra^lux IC90 (MIC)” value was determined as 115.57 µM and the IC50 worked out at 19.7 µM.
